Earlier results as cited in patent US20060280786A1, “PHARMACEUTICAL FORMULATIONS FOR MINIMIZING DRUG-DRUG INTERACTIONS” (priority 2005, published 2006).

Conditions: 200 mg dose of itraconazole

- fu (fraction of inhibitor drug unbound in plasma): 0.035
SMILES: CCC(C)n1ncn(-c2ccc(N3CCN(c4ccc(OCC5COC(Cn6cncn6)(c6ccc(Cl)cc6Cl)O5)cc4)CC3)cc2)c1=O (stereo not shown) [itraconazole]
